One experiment relates to RKO. The experiment is described as follows: RKO cell-killing assay. It counts as cell-based, human. Conditions: RKO (BRAF, PIK3) colon cancer cells. The protocol:
(§1) Briefly described, 2-3×10^3 cells/well in 100 μL of culture medium may be plated in 96 well plates and incubated overnight at 37° C., 5% CO2. The MET-ADCs, MET antibody(ies), control MMAE or control hIgG4 conjugated to MMAE with cysteine conjugation antibody(ies) may be diluted 1:3 in serum-free culture medium starting from 100 nM (final) in 50 μL as 3× concentrations to the HT-29 cells. At the end of an additional 5-6 days of cell growth at 37° C. in a humidified incubator with 5% CO2, the plates may be equilibrated to room temperature for 30 minutes and 100 μL/well of CellTiter-Glo® reagent (Promega Corp., Fitchburg, Wis.) may then be added to assess cell viability. Cell viability may be determined by measuring luminescence.
(§2) Various tumor cell lines and normal human cells may be tested for MET-ADC induced cell killing activity essentially as described above in Example 10 as assessed for MET receptor density. MET cell surface density was determined by indirect immunofluorescence staining of cell surface antigens on cultured cells using QIFIKIT (Dako). […] Following a forty-five minute incubation, cells may be incubated for 1 hour on ice with FITC conjugated antibody diluted 1:50 in FACS buffer. Then cells may be washed and receptor numbers may be determined by indirect immunofluorescence staining of the QIFIKIT beads using a Becton Dickinson LSRII flow cytometer.

A further experiment deals with HCT-116. The experiment is described as follows: Cell killing, HCT-116. Also noted: key: Sensitive; Resistant. It is filed as cell-based, human. Particulars: HCT-116, Colorectal Ca. The protocol:
as §1, §2

The test system of a further experiment is Hs 746T. In words: Cell killing, Hs 746T. It counts as cell-based, human. Particulars: Gastric Ca. The arrangement: key: Sensitive; Resistant. The protocol:
as §1, §2

The next experiment deals with H441. The experiment is described as follows: Cell killing, H441. Also noted: key: Sensitive; Resistant. Conditions: H441, NSCLC. It counts as cell-based, human. The protocol:
as §1, §2

The subject of another experiment is SNU869. The experiment is described as follows: Cell killing, SNU869. It counts as cell-based, human. Also noted: key: Sensitive; Resistant. Conditions: SNU869, Cholangiocarcinoma. The protocol: as §1, §2
In a further experiment the test system is T47D. The experiment is described as follows: Cell killing, T47D. It counts as cell-based, human. The arrangement: key: Sensitive; Resistant. Particulars: Breast Ca. The protocol:
as §1, §2

The next experiment concerns L55. In words: Cell killing, L55. It is filed as cell-based, human. The arrangement: key: Sensitive; Resistant. Conditions: L55, NSCLC. The procedure: as §1, §2
The subject of a further experiment is A204. The experiment is described as follows: Cell killing, A204. It is filed as cell-based, human. The arrangement: key: Sensitive; Resistant. Particulars: A204, Rhabdomyosarcoma. The protocol:
as §1, §2

A further experiment concerns humen fresh naïve PBMC. The experiment is described as follows: Cell killing, fresh naïve PBMC. It is filed as cell-based, human. The arrangement: key: Sensitive; Resistant. Particulars: 3 donors. The protocol:
as §1, §2

Experiment [1] relates to humen fresh activated PBMC. The experiment is described as follows: Cell killing, fresh activated PBMC. It counts as cell-based, human. Also noted: key: Sensitive; Resistant. Conditions: 3 donors. The procedure: as §1, §2
Experiment [2] deals with HT-29 colon cancer tumor xenografts. In words: HT-29 mouse xenograft model. Particulars: 1 mg/kg x3 Q7D. It counts as in vivo. The protocol: Female athymic nude mice age 6- to 7-weeks old are available commercially, including from Harlan Laboratories (Indianapolis, Ind.). The mice are allowed to acclimate for one week and fed ad libitum on a normal low fat (4.5%) diet, which may be continued for the duration of the study. Tumor cells may be purchased from ATCC and may be cultured in cell culture media such as RPMI 1640 (Life Technologies) with L-glutamine, 25 mM HEPES supplemented with 10% FBS and 1 mM Na Pyruvate. Cells may be detached, washed with serum free medium and then resuspended at a final concentration of 50×10^6 cells/mL in serum free RPMI 1640. Tumor cells, approximately 5×10^6, may be injected subcutaneously in the rear flank of subject mice in a 1:1 mixture of serum free growth medium and Matrigel (Becton Dickinson, Bedford, Mass.). Tumor and body weight measurements may be performed twice weekly. Prior to treatment, mice can be randomized based on tumor size using a randomization algorithm. Treatments may be started when the average tumor volume reaches 100 mm^3. […]
MET-ADCs and control hIgG4-MMAE may be prepared in Phosphate Buffered Saline (PBS) prior to dose. Tumor size may be determined by caliper measurements. […] Tumor volume data can be transformed to a log scale to equalize variance across time and treatment groups. Log volume data can be analyzed with two-way repeated measures ANOVA by time and treatment using SAS PROC MIXED software (SAS Institutes Inc, Cary, N.C.). Treatment groups are compared with the specified control group at each time point.

“Also recorded” adds a separate entry of the source.

As to “MET-ADC#1: emibetuzumab lysine-conjugated via (2,5-dioxopyrrolidin-1-yl) 2-azidoacetate and Octyne-β-Glucn-MMAE”, the “cell killing activity in RKO cells” value in the experiment with RKO is recorded as “killed; also recorded: highly potent in killing RKO cells”. The “Sensitive/ Resistant” value in the experiment on HCT-116 was “R”; in the experiment on Hs 746T, “S”; in the experiment on H441, “S”; in the experiment with SNU869, “S”; in the experiment with T47D it was “R”; in the experiment on L55, “R”. Also, the “Sensitive/ Resistant” value (in the experiment on A204; in the experiment on humen fresh naïve PBMC; in experiment [1]) was “R” throughout. The “Observation (efficacy in HT-29 mouse xenograft)” value in experiment [2] was “Tumor regression^”; in experiment [2] (listed as MET-ADC #1), “far superior efficacy”.

(Values after patent publication US11167039B2, “MET antibody drug conjugates” (priority 2016, dated 2021).)
